Source: patent publication US12227521B2, “CGRP antagonist compounds” (Nxera Pharma UK Limited, priority 2019, dated 2025)

Target: T1, human CGRP receptor (Homo sapiens, UniProt O60894+Q16602)
T1 construct: SK-N-MC endogenously expressing the human CGRP receptor; endogenous in cells; host or cells: SK-N-MC human neuroblastoma cells
Assay: cAMP functional assay (HTRF cAMP dynamic-2) in SK-N-MC cells
Assay type: cell-based
Details: SK-N-MC cells endogenously expressing human CGRP receptor; challenge with EC80 human CGRP (0.3 nM); functional pKb converted from pIC50 by modified Cheng-Prussoff equation
Experimental: cAMP production following receptor activation was determined using the Homogeneous Time-Resolved Fluorescence (HTRF) cAMP dynamic-2 assay (Cisbio, France). The human neuroblastoma cell line SK-N-MC endogenously expressing the human CGRP receptor was seeded at a density of 12,500 cells/well in solid walled 96 well half area plates (Costar, Catalog Number 3688, Corning Life Sciences, Germany). After 16 h incubation at 37° C. media was removed and cells were incubated at 37° C. for 30 min in serum free media containing 500 μM IBMX (Tocris, Abingdon, UK, Catalog Number 2845) and increasing concentrations of test antagonist. Following this cells were challenged with an EC80 concentration of human CGRP (0.3 nM) for a further 30 m at 37°) and then cAMP production was determined as manufacturer's instructions before plates were read on a PheraStar fluorescence plate reader (BMG LabTech, Germany). IC50 values were derived from the inhibition curve. The pIC50 values (where pIC50=−log10 IC50) were converted to a functional pKb value using a modified Cheng-Prussoff equation where Kd=agonist EC50 and L hot=agonist challenge concentration. The pKb values of certain compounds of the invention are detailed in Table 5.

T1 sequence (Q16602 23-461): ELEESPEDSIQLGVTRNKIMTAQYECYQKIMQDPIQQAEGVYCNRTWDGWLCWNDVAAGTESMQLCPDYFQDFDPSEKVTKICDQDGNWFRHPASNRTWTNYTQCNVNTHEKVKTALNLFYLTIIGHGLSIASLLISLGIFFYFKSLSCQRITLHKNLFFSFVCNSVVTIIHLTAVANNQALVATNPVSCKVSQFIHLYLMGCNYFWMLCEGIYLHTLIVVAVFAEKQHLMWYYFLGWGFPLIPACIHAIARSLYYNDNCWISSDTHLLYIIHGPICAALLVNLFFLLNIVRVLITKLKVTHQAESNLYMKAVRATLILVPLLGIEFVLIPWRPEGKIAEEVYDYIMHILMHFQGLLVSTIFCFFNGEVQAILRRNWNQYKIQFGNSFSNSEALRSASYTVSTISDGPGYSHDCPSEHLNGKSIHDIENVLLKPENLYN
T1 sequence (O60894 27-148): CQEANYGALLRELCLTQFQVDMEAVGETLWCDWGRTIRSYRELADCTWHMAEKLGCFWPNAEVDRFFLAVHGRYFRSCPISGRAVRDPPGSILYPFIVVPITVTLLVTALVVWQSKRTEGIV

C[C@@H]1[C@H](c2c(F)ccc(F)c2F)C[C@@H]2NC(=O)c3cnc4c(c3)C[C@@]3(C4)C(=O)Nc4ncc(cc43)/C=C/COCCOCCN1C2=O (single isomer, unassigned) [1-1 Isomer 1]
Kb: 6.31 pM
